Values of other authors in patent US20250339386A1, “VITAMIN K2 FOR USE IN TREATMENT OF CORONARY ARTERY CALCIFICATION” (Region Syddanmark, priority 2022, published 2025).

Key:
[1] = test system: human monocyte-derived macrophages; settings: cells pretreated; dose response relationship
CAC progression = settings: asymptomatic older men and women 60-80 years, with recommended calcium and vitamin D
[2] = test system: aortic valve calcification; settings: high-dose supplementation; male subjects with aortic valve calcification score above 300 arbitrary units

CC(C)=CCC/C(C)=C/CC/C(C)=C/CC/C(C)=C/CC/C(C)=C/CC/C(C)=C/CC/C(C)=C/CC1=C(C)C(=O)c2ccccc2C1=O [menaquinone-7]
Cytokine release (TNF-α, IL-1α, IL-1β) [1]: inhibition of cytokine release

CC1=C(C/C=C(\C)CCC[C@H](C)CCC[C@H](C)CCCC(C)C)C(=O)c2ccccc2C1=O [vitamin K1, phylloquinone]
Progression of existing CAC (CAC progression): reduced the progression of existing CAC

Menaquinone [vitamin K2]
Aortic valve calcification progression [2]: non-significantly decreased
